The nature of assay [1]: NIH3T3 cell viability loss – ATP luminescence, mouse fibroblasts, counter-screen, dose response (AID 2010).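 Further: cells exposed to compound for about 90 hours before reading.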 It is filed as functional, cell-based.
In assay [2] the target is Heat shock protein HSP 90-alpha (Homo sapiens, UniProt P07900). The assay is described as follows: Luminescence-based dose response biochemical high throughput screening assay for inhibitors of the Heat Shock Protein 90 (HSP90). [Related pubchem assays: 1831 (Summary AID.), 1846 (Confirmation screen.), 1789 (Primary screen.)].
Assay [3] in a line: Trypanosoma cruzi growth suppression in host cells – NIH3T3 host cells, beta-gal luminescence, confirmation (AID 2044).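 Further: intracellular parasites grown in NIH/3T3 mouse fibroblasts as host cells; luminescent beta-galactosidase reporter signal from transgenic T. cruzi replicating inside host cells; inhibitors lower the luminescence signal.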 The assay is classed as functional, cell-based.
Assay [4] in a line: SNU-C1 cell viability reduction, dose response, CellTiter-Glo luminescence (AID 1117323). The assay is classed as functional, cell-based.
Assay [5] can be described thus: Reduced DLD-1 viability, concentration-response, CellTiter-Glo luminescence (AID 1117352). It is filed as functional.
The nature of assay [6]: HCT116 cell viability decrease, GSK3B pretreatment – CellTiter-Glo, IC50, dose response (AID 1117339). It is filed as functional. The note with it: HCT-116.
Assay [7] in a line: cytotoxicity toward Colo320 cells – cell-based, CellTiter-Glo luminescence, IC50, dose response (AID 1117334). The note with it: COLO 320. The assay is classed as functional.
A short description of assay [8]: RKO cell viability reduction, dose response, CellTiter-Glo luminescence (AID 1117322). It is filed as functional.
Assay [9] can be described thus: CellTiter-Glo luminescence survival assay, SW480 colon tumor line, concentration-response curve, half-maximal inhibitory concentration (AID 1117338). The assay is classed as functional.
Assay [10] can be described thus: cytotoxicity toward HCT116 cells – cell-based, CellTiter-Glo luminescence, IC50, dose response (AID 1117332). The note with it: HCT-116. It is filed as functional.
A short description of assay [11]: cytotoxicity toward HT-29 cells – cell-based, CellTiter-Glo luminescence, IC50, dose response (AID 1117330). It is filed as functional.
A short description of assay [12]: Luminescence-based cell-based high throughput dose response assay to identify activators of the DAF-12 from the parasite S. stercoralis (ssDAF-12). It is filed as functional.
In assay [13] the target is T1, Oxysterols receptor LXR-beta (Homo sapiens, UniProt P55055).
T1 sequence (P55055 whole entry): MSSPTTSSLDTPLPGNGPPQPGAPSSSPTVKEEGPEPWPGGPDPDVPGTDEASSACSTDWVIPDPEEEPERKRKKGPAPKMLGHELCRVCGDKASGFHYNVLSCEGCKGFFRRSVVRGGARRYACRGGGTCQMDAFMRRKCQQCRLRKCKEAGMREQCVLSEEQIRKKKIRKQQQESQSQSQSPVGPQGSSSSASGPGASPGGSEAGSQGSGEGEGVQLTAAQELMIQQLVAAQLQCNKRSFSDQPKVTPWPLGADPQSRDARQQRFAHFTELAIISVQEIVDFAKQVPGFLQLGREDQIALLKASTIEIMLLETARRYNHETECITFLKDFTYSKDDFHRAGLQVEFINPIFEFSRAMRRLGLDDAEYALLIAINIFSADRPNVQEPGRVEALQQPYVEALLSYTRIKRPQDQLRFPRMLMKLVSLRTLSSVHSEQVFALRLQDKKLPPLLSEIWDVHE
The assay is described as follows: LXR agonists, Gal4 luciferase reporter, dose response, counter-screen for ssDAF-12 agonist project, cell-based, luminescence, HEK293, S. stercoralis campaign (AID 720737). The following applies: read-out: IC50 (the source's name). It is filed as functional.

Assay [14] deals with RNA-editing ligase 1, mitochondrial (Trypanosoma brucei brucei, UniProt P86926). Nature of the assay: inhibition of trypanosome RNA editing ligase – biochemical, fluorescence, Trypanosoma brucei, dose response (AID 1117295). The assay is classed as functional.
The target in assay [15] is G-protein coupled receptor 183 (Homo sapiens, UniProt P32249). The assay is described as follows: SAR confirmation of small molecule antagonists of the EBI2 receptor via a luminescent beta-arrestin assa. The assay is classed as functional.
The target in assay [16] is T2, Low molecular weight phosphotyrosine protein phosphatase (Homo sapiens, UniProt P24666).
T2 sequence (P24666 whole entry): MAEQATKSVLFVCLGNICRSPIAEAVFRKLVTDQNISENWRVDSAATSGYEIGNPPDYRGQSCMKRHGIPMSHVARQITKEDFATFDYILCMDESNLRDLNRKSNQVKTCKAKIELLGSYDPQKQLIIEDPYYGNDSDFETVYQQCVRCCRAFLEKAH
The assay is described as follows: inhibition of human LMPTP enzyme activity – biochemical, absorbance, pNPP substrate, LMPTP-A isoform, set 2, orthogonal assay, dose response (AID 743308). The assay is classed as functional.

For assay [17], the target named is T2, Low molecular weight phosphotyrosine protein phosphatase. Nature of the assay: inhibition of LMPTP-A enzymatic activity – biochemical, OMFP substrate, fluorescence intensity, set 2, dose response (AID 743307). It is filed as functional.
Assay [18] in a line: antimalarial activity against Dd2 parasites – SYBR Green fluorescence, erythrocytes, dry powder, set 2, dose response (AID 1159574). It is filed as functional, cell-based.

Active and inactive are the calls of the source. Bounds are passed on as bounds.

Chain of RNA-editing ligase 1, mitochondrial (P86926 whole entry): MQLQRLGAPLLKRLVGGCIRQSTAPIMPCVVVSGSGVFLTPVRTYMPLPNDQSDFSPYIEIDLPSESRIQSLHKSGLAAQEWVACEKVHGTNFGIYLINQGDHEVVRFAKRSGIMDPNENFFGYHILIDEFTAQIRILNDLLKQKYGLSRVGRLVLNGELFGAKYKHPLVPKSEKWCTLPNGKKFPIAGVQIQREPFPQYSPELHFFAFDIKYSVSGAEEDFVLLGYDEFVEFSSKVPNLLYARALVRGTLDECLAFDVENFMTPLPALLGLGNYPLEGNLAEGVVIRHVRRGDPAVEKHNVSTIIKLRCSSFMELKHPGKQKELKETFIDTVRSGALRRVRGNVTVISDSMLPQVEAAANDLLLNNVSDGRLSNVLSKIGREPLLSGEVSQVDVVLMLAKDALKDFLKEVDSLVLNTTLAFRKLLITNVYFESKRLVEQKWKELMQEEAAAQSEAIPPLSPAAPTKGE
Chain of G-protein coupled receptor 183 (P32249 whole entry): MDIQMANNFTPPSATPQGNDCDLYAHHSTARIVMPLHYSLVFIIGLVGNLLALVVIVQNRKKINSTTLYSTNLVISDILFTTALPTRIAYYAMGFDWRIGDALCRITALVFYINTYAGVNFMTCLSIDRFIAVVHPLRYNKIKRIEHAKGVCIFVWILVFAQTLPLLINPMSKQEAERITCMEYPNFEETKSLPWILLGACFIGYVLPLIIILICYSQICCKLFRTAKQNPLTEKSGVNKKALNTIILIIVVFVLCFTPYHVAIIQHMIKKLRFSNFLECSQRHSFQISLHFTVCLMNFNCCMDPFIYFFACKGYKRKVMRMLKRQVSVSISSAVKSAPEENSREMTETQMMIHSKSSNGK

`CCc1ccc(Nc2n[n+](-c3ccccc3)c(-c3ccc(N(CC)CC)cc3)s2)cc1`: the figures for the EC50 in [1] and in [3] were > 60 µM (not active) and 0.408 µM (active), respectively. Moreover, the IC50 in [2] is 5.48 µM (active).
`C/C(=N\O)[C@@H](C)NCC(C)(C)CN[C@H](C)/C(C)=N/O`: the IC50 in [4], in [5], in assay [6], in assay [7], in assay [8] and in assay [9] was > 20 µM (inactive) each time. Further, the IC50 in assay [10] and in [11] was > 20 µM (inactive) each time.
For `C[C@@H](c1ccccc1)N1C[C@@H](COCc2ccccc2)Oc2cc(N3CCC[C@H]3C(N)=O)ccc2S1(=O)=O`, in assay [12], the IC50 was > 67.5 µM (inactive). The EC50 in assay [13] is > 67.5 µM (inactive).
Consider `COC(=O)C1=C(C)N(Cc2ccccc2C(F)(F)F)C(NCc2ccc(OC)cc2)=NC1c1ccccc1` (stereo not drawn), for which the IC50 in assay [14] is > 96.6 µM (inactive).
For the molecule `O=C(/C=C/c1ccc(F)cc1)N1CCN(S(=O)(=O)c2cccc3ccccc23)CC1`, in assay [15], the IC50 is 0.0497 µM (active).
On to `Fc1cccc(-c2cc(NCCCN3CCCCC3)c3ccccc3n2)c1`, for which the IC50 in [16] was 4 µM (active); in assay [17] it was 1.84 µM (active).
As to `COc1ccc(S(=O)(=O)N(C)C[C@@H]2OCc3ccccc3-c3c(n(C)c4ccccc34)C(=O)N([C@@H](C)CO)C[C@H]2C)cc1`, in assay [18], the AC50 is 2.27 µM (active).

Values taken from ChEMBL document CHEMBL1201862, “PubChem BioAssay data set” (2004).
